Measurements from patent publication US10703733B2, “MCL-1 inhibitors” (Gilead Sciences, Inc., priority 2018, dated 2020).
Read-outs that look alike come from different tables or passages of the source.

Legend:
[1] = tested on: SKBR3 cells; experiment: SKBR3 Cell Viability Assay (CellTiter Glo); format: cell-based; conditions: CellTiter Glo luminescence, read-out: MCL-1 CV SKBR3 EC50
Method in brief: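 Viability read as CellTiter Glo luminescence after 72 h of compound exposure at 37° C./5% CO2, using 6,000 SKBR3 cells per well in McCoy 5A with 10% FBS. Percent inhibition scaled between DMSO wells and 10 μM puromycin wells.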

[2] = target: MCL-1/Bim interaction (recombinant human MCL-1 protein, residues 171-327; biotinylated human Bim peptide, residues 51-76) (Homo sapiens (Human), UniProt Q07820); experiment: MCL-1/Bim Binding AlphaLISA Assay; conditions: 0.0625 nM 6xHis-Mcl-1 (171-327), 0.0625 nM biotinylated-Bim peptide
Method in brief: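 Protein 0.0625 nM + cpd, 1 h; add biotin-Bim 0.0625 nM, 2 h; acceptor beads 1 h; donor beads 1 h; AlphaScreen read. Buffer 20 mM Hepes pH 7.5, 150 mM NaCl, 1 mM DTT.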

MCL-1/Bim interaction (recombinant human MCL-1 protein, residues 171-327; biotinylated human Bim peptide, residues 51-76), sequence (Q07820 171-327): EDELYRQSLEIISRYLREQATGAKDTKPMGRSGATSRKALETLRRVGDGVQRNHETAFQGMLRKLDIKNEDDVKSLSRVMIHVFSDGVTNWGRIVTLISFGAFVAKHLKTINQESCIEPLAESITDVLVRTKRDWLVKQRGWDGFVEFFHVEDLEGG

Row | EC50 ([1]; Homo sapiens, SK-BR-3, 72 h) [nM] | IC50 [2] [nM] | Compound | EC50 ([1]; 72 hours) [nM]
1 | 26.8 | 0.026 | COc1nn(C)cc1C(=O)N[S@@]1(=O)=NC(=O)c2ccc3c(c2)N(C[C@@H]2CC[C@H]2[C@@H](OC(=O)CCN2CCOCC2)/C=C/C[C@H](C)C1)C[C@@]1(CCCc2cc(Cl)ccc21)CO3 [Example 300] | 
2 | 297 | 0.147 | CO[C@H]1/C=C/C[C@H](C)C[S@@](=O)(NC(=O)c2cnoc2)=NC(=O)c2ccc3c(c2)N(C[C@@H]2CC[C@H]21)C[C@@]1(CCCc2cc(Cl)ccc21)CO3 [Example 409] | 
3 | 534 | 0.769 | COc1nn(C)cc1C(=O)N[S@@]1(=O)=NC(=O)c2ccc3c(c2)N(C[C@@H]2CC[C@H]2[C@@H](OC(=O)CC(C)C)/C=C/C[C@H](C)C1)C[C@@]1(CCCc2cc(Cl)ccc21)CO3 [Example 381] | 
4 | 50.8 | 0.05 | CO[C@H]1/C=C/C[C@H](C)C[S@@](=O)(NC(=O)NC2CC2)=NC(=O)c2ccc3c(c2)N(C[C@@H]2CC[C@H]21)C[C@@]1(CCCc2cc(Cl)ccc21)CO3 [Example 144] | 
5 | 685 | 0.2 | CO[C@H]1/C=C/CCC[S@@](=O)(NC(=O)CCn2cc(Cl)cn2)=NC(=O)c2ccc3c(c2)N(C[C@@H]2CC[C@H]21)C[C@@]1(CCCc2cc(Cl)ccc21)CO3 [Example 55] | 
6 | 82.9 | 0.113 | CO[C@H]1/C=C/C[C@H](C)C[S@@](=O)(NC(=O)N[C@H]2C[C@@H]2C)=NC(=O)c2ccc3c(c2)N(C[C@@H]2CC[C@H]21)C[C@@]1(CCCc2cc(Cl)ccc21)CO3 [Example 117] | 
7 | 64.8 | 0.234 | CO[C@H]1/C=C/C[C@H](C)C[S@@](=O)(NC(=O)c2ccc3c(c2)COCC3)=NC(=O)c2ccc3c(c2)N(C[C@@H]2CC[C@H]21)C[C@@]1(CCCc2cc(Cl)ccc21)CC3 [Example 157] | 
8 | 316 | 0.091 | CO[C@H]1/C=C/C[C@H](C)C[S@@](=O)(NC(=O)[C@H]2C[C@@H]2c2cccnc2)=NC(=O)c2ccc3c(c2)N(C[C@@H]2CC[C@H]21)C[C@@]1(CCCc2cc(Cl)ccc21)CO3 [Example 426] | 
9 | 21.3 | 0.076 | CO[C@H]1/C=C/[C@H](OC)[C@H](C)C[S@@](=O)(NC(=O)N[C@H]2CC2C(F)F)=NC(=O)c2ccc3c(c2)N(C[C@@H]2CC[C@H]21)C[C@@]1(CCCc2cc(Cl)ccc21)CO3 (stereo partly shown) [Example 227] | 
10 | 261 | 0.129 | CO[C@H]1/C=C/C[C@H](C)C[S@@](=O)(NC(=O)c2cc3c(s2)CCOC3)=NC(=O)c2ccc3c(c2)N(C[C@@H]2CC[C@H]21)C[C@@]1(CCCc2cc(Cl)ccc21)CO3 [Example 429] | 
11 | 335 | 0.197 | COC(=O)N1CCC(OCC(=O)N[S@@]2(=O)=NC(=O)c3ccc4c(c3)N(C[C@@H]3CC[C@H]3[C@@H](OC)/C=C/C[C@H](C)[C@H]2C)C[C@@]2(CCCc3cc(Cl)ccc32)CO4)CC1 [Example 418] | 
12 | 376 | 0.1 | CO[C@H]1/C=C/CCC[S@@](=O)(NC(=O)CCc2ncccn2)=NC(=O)c2ccc3c(c2)N(C[C@@H]2CC[C@H]21)C[C@@]1(CCCc2cc(Cl)ccc21)CO3 [Example 44] | 
13 | 152 | 0.18 | CCn1ccc(C(=O)N[S@@]2(=O)=NC(=O)c3ccc4c(c3)N(C[C@@H]3CC[C@H]3[C@@H](OC)/C=C/C[C@H](C)C2)C[C@@]2(CCCc3cc(Cl)ccc32)CO4)c1 [Example 130] | 
14 | 84.7 | 0.041 | CO[C@H]1/C=C/C[C@H](C)C[S@@](=O)(NC(=O)N2CC(n3ccnc3)C2)=NC(=O)c2ccc3c(c2)N(C[C@@H]2CC[C@H]21)C[C@@]1(CCCc2cc(Cl)ccc21)CO3 [Example 348] | 
15 | 79.3 | 0.138 | CO[C@H]1/C=C/C[C@H](C)C[S@@](=O)(NC(=O)c2cnn(C3CCC3)c2)=NC(=O)c2ccc3c(c2)N(C[C@@H]2CC[C@H]21)C[C@@]1(CCCc2cc(Cl)ccc21)CO3 [Example 176] | 
16 |  | 0.1 | CO[C@H]1/C=C/C[C@H](C)[C@@H](C)[S@@](=O)(NC(=O)CCc2ccnn2C)=NC(=O)c2ccc3c(c2)N(C[C@@H]2CC[C@H]21)C[C@@]1(CCCc2cc(Cl)ccc21)CO3 [Example 49] | 207
17 | 69.5 | 0.086 | CCn1cc(C(=O)N[S@@]2(=O)=NC(=O)c3ccc4c(c3)N(C[C@@H]3CC[C@H]3[C@@H](OC)/C=C/C[C@H](C)[C@H]2C)C[C@@]2(CCCc3cc(Cl)ccc32)CO4)cn1 [Example 153] | 
18 | 51.1 | 0.071 | CO[C@H]1/C=C/C[C@H](C)C[S@@](=O)(NC(=O)c2cc(C(=O)N(C)C)n(C)c2)=NC(=O)c2ccc3c(c2)N(C[C@@H]2CC[C@H]21)C[C@@]1(CCCc2cc(Cl)ccc21)CO3 [Example 332] | 
19 | 21.3 | 0.129 | COCc1cc(C(=O)N[S@@]2(=O)=NC(=O)c3ccc4c(c3)N(C[C@@H]3CC[C@H]3[C@@H](OC)/C=C/C[C@H](C)C2)C[C@@]2(CCCc3cc(Cl)ccc32)CO4)cn1C [Example 304] | 
20 | 264 | 0.081 | COc1ccc(C(=O)N[S@@]2(=O)=NC(=O)c3ccc4c(c3)N(C[C@@H]3CC[C@H]3[C@@H](OC)/C=C/C[C@H](C)C2)C[C@@]2(CCCc3cc(Cl)ccc32)CO4)cc1 [Example 269] | 
21 | 86.4 | 0.061 | COC1CN(C(=O)N[S@@]2(=O)=NC(=O)c3ccc4c(c3)N(C[C@@H]3CC[C@H]3[C@@H](OC)/C=C/CCC2)C[C@@]2(CCCc3cc(Cl)ccc32)CO4)C1 [Example 390] | 
22 | 40 | 0.051 | CO[C@H]1/C=C/C[C@H](C)C[S@@](=O)(NC(=O)N2CC3(CCCO3)C2)=NC(=O)c2ccc3c(c2)N(C[C@@H]2CC[C@H]21)C[C@@]1(CCCc2cc(Cl)ccc21)CO3 [Example 231] | 
23 | 1100 | 1.1 | CO[C@H]1/C=C/CCC[S@@](=O)(NC(=O)CCCC(F)(F)F)=NC(=O)c2ccc3c(c2)N(C[C@@H]2CC[C@H]21)C[C@@]1(CCCc2cc(Cl)ccc21)CO3 [Example 95] | 
24 | 47.1 | 0.037 | C[C@H]1C/C=C/[C@H](O)[C@@H]2CC[C@H]2CN2C[C@@]3(CCCc4cc(Cl)ccc43)COc3ccc(cc32)C(=O)N=[S@](=O)(NC(=O)N[C@H]2C[C@@H]2C(F)F)C1 [Example 321] | 
25 | 104 | 0.043 | CO[C@H]1/C=C/C[C@H](C)C[S@@](=O)(NC(=O)C2CC(O)(C(F)(F)F)C2)=NC(=O)c2ccc3c(c2)N(C[C@@H]2CC[C@H]21)C[C@@]1(CCCc2cc(Cl)ccc21)CO3 (stereo partly shown) [Example 198] | 
26 | 588 | 0.053 | CO[C@H]1/C=C/C[C@H](C)C[S@@](=O)(NC(=O)N2CC(O)C2)=NC(=O)c2ccc3c(c2)N(C[C@@H]2CC[C@H]21)C[C@@]1(CCCc2cc(Cl)ccc21)CO3 [Example 289] | 

Row | Compound | EC50 ([1]; Homo sapiens, SK-BR-3, 72 h) [nM] | IC50 [2] [nM] | EC50 ([1]; 72 hours) [nM]
27 | COC[C@H]1C[C@H]1NC(=O)N[S@@]1(=O)=NC(=O)c2ccc3c(c2)N(C[C@@H]2CC[C@H]2[C@@H](OC)/C=C/C[C@H](C)C1)C[C@@]1(CCCc2cc(Cl)ccc21)CO3 [Example 316] |  | 0.056 | 116
28 | CO[C@H]1/C=C/CCC[S@@](=O)(NC(=O)Cc2ncccn2)=NC(=O)c2ccc3c(c2)N(C[C@@H]2CC[C@H]21)C[C@@]1(CCCc2cc(Cl)ccc21)CO3 [Example 30] | 1840 | 0.6 | 
29 | CO[C@H]1/C=C/CCC[S@@](=O)(NC(=O)CCS(C)(=O)=O)=NC(=O)c2ccc3c(c2)N(C[C@@H]2CC[C@H]21)C[C@@]1(CCCc2cc(Cl)ccc21)CO3 [Example 28] | 8410 | 0.2 | 
